Experimental data as given in patent US20250236616A1, “IMMUNOMODULATING AZALIDES” (Zoetis Services LLC, priority 2021, published 2025).
pIC50: −log10 of the molar value. Marks after values point to notes of the source that are not given here.

Experiments:
Format in all cases: cell-based
TNF-α = assay: Whole bovine blood assay, LPS-induced TNF-α; settings: fresh whole bovine blood, LPS stimulant, top drug concentration 250 μM
How it was run: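 Fresh heparinized bovine whole blood was preincubated with compound 4 h at 37 °C, then stimulated with LPS (final 1 μg/mL) for 18 h at 37 °C. Plasma TNF-α was quantified by MSD U-Plex chemiluminescent immunoassay, normalized to total protein (BCA), and IC50 taken for LPS-induced TNF-α inhibition.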

IL-1β = assay: Whole bovine blood assay, LPS-induced IL-1β (inhibition / overstimulation); settings: drug concentration giving overstimulation (OS) of LPS-induced IL-1β, top concentration 250 μM
How it was run: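 IL-1β was quantified by MSD U-Plex chemiluminescence in plasma and normalized to BCA total protein. Bovine blood was pretreated 4 h at 37 °C with compound dilutions before 18 h LPS challenge (1 μg/mL final). Rising IL-1β at high concentrations was recorded as overstimulation.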

[1] = tested on: BRD pathogens, M. haemolytica and P. multocida; assay: MIC screening panel, BRD pathogens (CLSI broth micro-dilution); settings: at least one BRD pathogenic strain, top concentration 64 μg/mL; for MIC: read-out: MIC flag (*) for BRD pathogenic strains
From the text: Primary screening of the compounds of the invention included the evaluation of antibacterial activity of analogs through determination of microbial inhibition concentration (MIC) as per CLSI guidelines. The screening panel included the relevant BRD pathogens: 1) M. haemolytica (e.g., 12726, 46571 and 49023, all AHDRCC; and 33396 (ATCC)); and 2) P. multocida (e.g., 34135 and 46572 (both AHDRCC) and 43137 (ATCC)). In some instances, H. somni (A700025K) pathogens were also included in the screening panel. The AHDRCC strains originated from the Zoetis BRD/SRD surveillance program and refer to the Animal Health Development and Research Culture Collection. In addition, the screen assessed S. aureus (29213 ATCC) as a representative Gram-positive isolate, E.faecalis (19433 ATCC) as a commensal gram-positive gastrointestinal bacterium and E. coli (100, 3110 and 25922 (ATCC)) for the evaluation of efflux potential. The screening panel BRD pathogens were assessed in determining antibacterial activity of the Formula (1) compounds.
All relevant BRD pathogens were initially screened at a top concentration of 64 μg/mL of a Formula (1) compound in an eleven-point dilution series. […] If an Example was purified further, the MICs moved […] essentially two dilutions across all strains tested in the screening panel.
In-Vitro MIC Model Compounds were analyzed for antibacterial activity against a panel of animal health specific gram-positive and gram-negative clinical strains by diluting compounds in DMSO to an appropriate stock concentration to determine the Minimal Inhibitory Concentration (MIC) via a semi-automated broth micro-dilution method (CLSI reference method) with QC strains and anti-microbial agent(s). Specifically, bacteria were grown overnight on TSA w/5% sheep blood agar plates and diluted in saline buffer to a McFarland Standard 0.5, then further diluted in cation-ion adjusted Mueller Hinton Broth to a final concentration of approximately 5×10^5 CFU/mL. 100 μL of inoculated media was added to 96-well plate(s) with 3 μL of serially diluted compound in each row. Depending on strain (see CLSI reference method), bacteria were incubated 18-22 hours at 35-37° C. in ambient air, with 5% CO2 or anaerobically (up to 48 hours).

IL-6 = assay: Whole bovine blood assay, LPS-induced IL-6; settings: fresh whole bovine blood, LPS stimulant, top drug concentration 250 μM

| Molecule | pIC50 (TNF-α) | minimal effective concentration (IL-1β) | MIC flag (*) for BRD pathogenic strains ([1]; Table C) | pIC50 (IL-6) | pIC50 (TNF-α; Bos taurus) | minimal effective concentration (IL-1β; Bos taurus, 18 h) | MIC ([1]; Table B) | pIC50 (IL-6; Bos taurus) | MIC flag (*) for BRD pathogenic strains ([1]; Table B) |
| --- | --- | --- | --- | --- | --- | --- | --- | --- | --- |
| (2R,3S,4R,5R,8R,10R,11R, 12S, 13S, 14R)-2-ethyl-11-[(2R,3S,4R,6S)-4-[(3-fluorophenyl) sulfamoyl-methylamino]-3-hydroxy-6-methyloxan-2-yl]oxy-3,4, 10-trihydroxy-13-[(2R,4R,5S,6S)-5-hydroxy-4-methoxy-4,6-dimethyl-5-(piperidin-1-ylmethyl)-oxan-2-yl]oxy-3,5,8,10, 12,14-hexamethyl-15-oxo-1-oxa-6-azacyclopentadecane [Example C-24] | 4.80 | 3 µM | C-24* (MIC ≤64 μg/mL for at least one BRD pathogenic strain) | 4.60 | – | – | – | – | – |
| CC(=O)O.CCCN1C[C@H](C)C[C@@](C)(O)[C@H](O[C@@H]2O[C@H](C)C[C@H](N(C)S(=O)(=O)Nc3ccc(C(F)(F)F)cc3)[C@H]2O)[C@@H](C)[C@H](O[C@H]2C[C@@](C)(OC)[C@](O)(CN3CCCCC3)[C@H](C)O2)[C@@H](C)C(=O)O[C@H](CC)[C@@](C)(O)[C@H](O)[C@H]1C [Example C-58, (2R,3S,4R,5R,8R,10R,11R,12S,13S,14R)-2-ethyl-3,4,10-trihydroxy-13-[(2R,4R,5S,6S)-5-hydroxy-4-methoxy-4,6-dimethyl-5-(piperidin-1-ylmethyl)oxan-2-yl]oxy-11-[(2S,3R,4S,6R)-3-hydroxy-6-methyl-4-[methyl-[[4-(trifluoromethyl)phenyl]sulfamoyl]amino]oxan-2-yl]oxy-3,5,8, 10, 12,14-hexamethyl-15-oxo-6-propyl-1-oxa-6-azacyclopentadecane, acetic acid] | 5.05 | 12 µM | C-58* (MIC ≤64 μg/mL for at least one BRD pathogenic strain) | 4.89 | – | – | – | – | – |
| CCCNC[C@]1(O)[C@H](C)OC(O[C@H]2[C@H](C)[C@@H](O[C@@H]3O[C@H](C)C[C@H](N(C)S(=O)(=O)c4cc(Br)c(Br)s4)[C@H]3Oc3ccc(OC)cc3)[C@](C)(O)C[C@@H](C)CN[C@H](C)[C@@H](O)[C@](C)(O)[C@@H](CC)OC(=O)[C@@H]2C)C[C@@]1(C)OC (stereo partly drawn) [Example B-105, 4,5-dibromo-N-[(2S,3R,4S,6R)-2-[[(2R,3S,4R,5R,8R,10R,11R, 12S, 13S, 14R)-2-ethyl-3,4, 10-trihydroxy-13-[(4R,5S,6S)-5-hydroxy-4-methoxy-4,6-dimethyl-5-(propylaminomethyl)oxan-2-yl]oxy-3,5,8, 10, 12,14-hexamethyl-15-oxo-1-oxa-6-azacyclopentadec-11-yl]oxy]-3-(4-methoxyphenoxy)-6-methyloxan-4-yl]-N-methylthiophene-2-sulfonamide] | – | – | – | – | 4.92 | 3 µM | ≤ 64 µg/mL | 5.15 | – |
| CC[C@H]1OC(=O)[C@H](C)[C@@H](O[C@H]2C[C@@](C)(OC)[C@](O)(CNC3CC3)[C@H](C)O2)[C@H](C)[C@@H](O[C@@H]2O[C@H](C)C[C@H](N(C)S(=O)(=O)c3ccc(Cl)cc3)[C@H]2O)[C@](C)(O)C[C@@H](C)CN[C@H](C)[C@@H](O)[C@]1(C)O [Example B-23, 4-chloro-N-((2S,3R,4S,6R)-2-(((2R,3S,4R,5R,8R,10R,11R,12S,13S, 14R)-13-(((2R,4R,5S,6S)-5-((cyclopropylamino)methyl)-5-hydroxy-4-methoxy-4,6-dimethyltetrahydro-2H-pyran-2-yl)oxy)-2-ethyl-3,4, 10-trihydroxy-3,5,8, 10, 12,14-hexamethyl-15-oxo-1-oxa-6-azacyclopentadecan-11-yl)oxy)-3-hydroxy-6-methyltetrahydro-2H-pyran-4-yl)-N-methylbenzenesulfonamide] | – | – | – | – | 5.52 | – | ≤ 64 µg/mL | 4.89 | – |
| CCCNC[C@]1(O)[C@H](C)O[C@@H](O[C@H]2[C@H](C)[C@@H](O[C@@H]3O[C@H](C)C[C@H](N(C)S(=O)(=O)c4cccnc4)[C@H]3O)[C@](C)(O)C[C@@H](C)CN[C@H](C)[C@@H](O)[C@](C)(O)[C@@H](CC)OC(=O)[C@@H]2C)C[C@@]1(C)OC [Example B-12, N-((2S,3R,4S,6R)-2-(((2R,3S,4R,5R,8R,10R,11R,12S, 13S,14R)-2-ethyl-3,4,10-trihydroxy-13-(((2R,4R,5S,6S)-5-hydroxy-4-methoxy-4,6-dimethyl-5-((propylamino)methyl)tetrahydro-2H-pyran-2-yl)oxy)-3,5,8,10,12,14-hexamethyl-15-oxo-1-oxa-6-azacyclopentadecan-11-yl)oxy)-3-hydroxy-6-methyltetrahydro-2H-pyran-4-yl)-N-methylpyridine-3-sulfonamide] | – | – | – | – | – | > 250 µM | ≤ 64 µg/mL | – | – |
| CCCNC[C@]1(O)[C@H](C)O[C@@H](O[C@H]2[C@H](C)[C@@H](O[C@@H]3O[C@H](C)C[C@H](N(C)S(=O)(=O)c4ccc([N+](=O)[O-])cc4)[C@H]3O)[C@](C)(O)C[C@@H](C)CN[C@H](C)[C@@H](O)[C@](C)(O)[C@@H](CC)OC(=O)[C@@H]2C)C[C@@]1(C)OC [Example B-2, N-((2S,3R,4S,6R)-2-(((2R,3S,4R,5R,8R,10R,11R,12S,13S,14R)-2-ethyl-3,4,10-trihydroxy-13-(((2R,4R,5S,6S)-5-hydroxy-4-methoxy-4,6-dimethyl-5-((propylamino)methyl)tetrahydro-2H-pyran-2-yl)oxy)-3,5,8,10, 12,14-hexamethyl-15-oxo-1-oxa-6-azacyclopentadecan-11-yl)oxy)-3-hydroxy-6-methyltetrahydro-2H-pyran-4-yl)-N-methyl-4-nitrobenzenesulfonamide] | – | – | – | – | 4.43 | – | ≤ 64 µg/mL | 4.34 | – |
| (2R,3S,4R,5R,8R,10R,11R,12S, 13S, 14R)-2-ethyl-3,4, 10-trihydroxy-13-[(2R,4R,5S,6S)-5-hydroxy-4-methoxy-4,6-dimethyl-5-(piperidin-1-ylmethyl) oxan-2-yl]oxy-11-[(2R,3S,4R,6S)-3-hydroxy-4-[(4-methoxyphenyl) sulfamoyl-methylamino]-6-methyloxan-2-yl]oxy-3,5,8,10, 12,14-hexamethyl-15-oxo-1-oxa-6-azacyclopentadecane [Example C-27] | 4.14 | – | C-27* (MIC ≤64 μg/mL for at least one BRD pathogenic strain) | 4.14 | – | – | – | – | – |
| CC[C@H]1OC(=O)[C@H](C)[C@@H](O[C@H]2C[C@@](C)(OC)[C@](O)(CNCCc3ccc(C(F)(F)F)cc3)[C@H](C)O2)[C@H](C)[C@@H](O[C@@H]2O[C@H](C)C[C@H](N(C)S(=O)(=O)Nc3ccc(C(F)(F)F)cc3)[C@H]2O)[C@](C)(O)C[C@@H](C)CN[C@H](C)[C@@H](O)[C@]1(C)O [Example B-79] | 5.15 | – | – | 5.15 | – | – | – | – | B79* (MIC ≤64 μg/mL for at least one BRD pathogenic strain) |
| CC[C@H]1OC(=O)[C@H](C)[C@@H](O[C@H]2C[C@@](C)(OC)[C@](O)(CNCCc3ccc(C(F)(F)F)cc3)[C@H](C)O2)[C@H](C)[C@@H](O[C@@H]2O[C@H](C)C[C@H](N(C)S(=O)(=O)c3ccc(Cl)cc3)[C@H]2O)[C@](C)(O)C[C@@H](C)CN[C@H](C)[C@@H](O)[C@]1(C)O [Example B-31, 4-chloro-N-((2S,3R,4S,6R)-2-(((2R,3S,4R,5R,8R,10R,11R, 12S, 13S, 14R)-2-ethyl-3,4,10-trihydroxy-13-(((2R,4R,5S,6S)-5-hydroxy-4-methoxy-4,6-dimethyl-5-(((4-(trifluoromethyl)phenethyl)amino)methyl)tetrahydro-2H-pyran-2-yl)oxy)-3,5,8,10, 12,14-hexamethyl-15-oxo-1-oxa-6-azacyclopentadecan-11-yl)oxy)-3-hydroxy-6-methyltetrahydro-2H-pyran-4-yl)-N-methylbenzenesulfonamide] | – | – | – | – | 5.40 | – | ≤ 64 µg/mL | 5.15 | – |
